Assay results reported in US20090155236A1, “Peptide sequence for modulation of delta protein kinase c” (NATIONAL INSTITUES OF HEALTH (NIH), U.S. DEPT OF HEALTH AND …, priority 2004, published 2009).
Positions of bridges follow the written chain, without caps; N, C: chain ends. No end group written: not given here.

What was measured:
delta PKC [1] = target: T1, delta PKC (Homo sapiens, UniProt Q05655); experiment: In vitro kinase assay, histone phosphorylation by delta PKC; assay type: biochemical
T1 construct: purchased Panvera LLC, now Invitrogen Corporation
Experimental: In another study, the ability of annexin V to increase the catalytic activity of delta PKC in vitro was evaluated. Full-length, recombinant delta PKC (SEQ ID NO:3) and epsilon PKC (SEQ ID NO:6) were separately incubated in the presence of kinase buffer, ATP, or histone, as described in Example 3. Activators of PKC, phosphatidylserine (PS) and diacylglycerol (DAG), were added along with annexin V, JTV-519, a 1,4 benzothiazepine derivative that activates delta PKC (Inagaki, K. et al., Circulation, 101:797 (2000)), or a mixture of annexin V and JTV-519.
200 ng of pure delta PKC or epsilon PKC (Panvera LLC, now Invitrogen Corporation, Carlsbad, Calif.) were incubated in 100 μL kinase buffer (20 mM Tris pH 7.4, 50 mM MgCl2, 0.3 μCi/reaction [γ-^32P]ATP (Amersham Biosciences), 9 μM/reaction ATP (Sigma), 30 μg/reaction myelin basic protein or histone A1 (Sigma); 100 μM lipid vesicle mixture (90% phosphatidylserine (PS): 10% diacylglycerol (DAG)), 1 mM CaCl2, 1 μM JTV519, and/or 20 ng of Annexin V/reaction were added, where applicable. The kinase reaction was stopped by the addition of SDS sample buffer, and extent of histone phosphorylation assessed after separation on 15% SDS-PAGE and transfer onto nitrocellulose membrane by autoradiography.

[2] = target: T2, annexin V and delta PKC interaction (Homo sapiens, UniProt Q05655); experiment: Cross-linking immuno-precipitation of delta PKC probed with anti-annexin V in cardiac myocytes; assay type: cell-based; settings: cardiac myocytes stimulated with the agent, FIG. 5
T2 construct: endogenous in cells; host or cells: cardiomyocytes
Experimental: Example 4 describes a study where cardiac myocytes were stimulated with a selected agent and then immuno-precipitated with anti-delta PKC after cross-linking. The cell lysates were then probed with anti-annexin V and visualized with ECL Western blotting. […] The stimulation agent was applied to the cells for times of between 30 seconds to 20 minutes, prior to lysing.
Cardiomyocytes were treated with phorbol 12-myristate 13-acetate (PMA; 10 nM), hydrogen peroxide (H2O2; 5 mM), JTV-519, or delta V1-1 peptide (1 μM) and JTV-519 (1 μM), for times of between 30 seconds to 5 minutes. After the lapsed time, the cells were washed with cold PBS, and homogenized on ice with trituration in homogenization buffer (20 mM Tris pH 7.4, 2 mM EDTA, 10 mM EGTA, 0.25M sucrose, 12 mM O-mercaptoethanol, and protease inhibitor cocktail (Sigma), 0.1% formaldehyde. After 30 min at 4° C., the lysates were quenched with 0.14M glycine for 20 min at 4° C., and samples spun at 14K rpm at 4° C. The supernatant was incubated with 1 μg anti-delta PKC antibody (Santa Cruz Biotechnology, Inc., Santa Cruz, Calif.) for 1 hour, then with proteinG beads (Invitrogen Corporation) for 3 hours at 4° C. The beads where then washed with wash buffer (20 mM Tris pH 7.5, 2 mM EDTA, 100 mM NaCl, 12 mM β-mercaptoethanol, 0.1% Triton), and separated on 7.5% SDS-PAGE, transferred to nitrocellulose, and probed with anti-annexin V (Santa Cruz Biotechnology, Inc., Santa Cruz, Calif.), followed by visualization by ECL Western blotting.

[3] = target: T3, delta PKC/annexin V interaction (Cricetulus griseus, UniProt A0A8C2N0P5); experiment: Cross-linking co-immunoprecipitation of annexin V and delta PKC in CHO cells; assay type: cell-based
T3 construct: endogenous in cells; host or cells: CHO cells
Experimental: A similar study was conducted to further evaluate the in vitro, intracellular interactions of delta PKC and annexin V. Cellular interactions of delta PKC/annexin V interaction in CHO cells were stabilized with a cross-linking agent, after stimulation with 10 nM PMA. The complexes formed with delta PKC were then immuno-precipitated and tested for the presence of annexin V. The SDS-PAGE gel is shown in FIG. 6A and a corresponding graph quantifying percent association of annexin V and delta PKC as a function of time is shown in FIG. 6B. […] The interaction is relatively short-lived, and the proteins disassociated after 1 minute of stimulation.
The effect of JTV-519, an activator of delta PKC, on the association of annexin V and delta PKC was also evaluated in this study. Cells were treated with JTV-519, and the association of annexin V and delta PKC was examined using the co-immunoprecipitation procedure described above. […] PMA caused the disassociation of the JTV-induced complex at 30 seconds, the time of maximal PMA-induced association. […] Whereas the cytosolic fraction of the cells contained a steady low level of the complex, the majority of the complex was found in the particulate fraction of the cells, and disappearance from the particulate fraction followed the same time-course as observed in whole cell lysates (compare FIG. 6D bottom panel with FIG. 6B).

delta PKC [4] = target: T4, delta PKC (Cricetulus griseus, UniProt A0A8C2N0P5); experiment: Translocation of delta PKC to the membrane fraction of CHO cells upon PMA stimulation; assay type: cell-based; settings: CHO cells pretreated 1 μM for 15 minutes, PMA 10 nM for 5 minutes, FIGS. 8A-8B
T4 construct: endogenous in cells; host or cells: CHO cells
Experimental: The ability of the annexin V peptide to block the intracellular interaction of delta PKC and annexin V was illustrated in the following study. The annexin V peptide (SEQ ID NO: 1) was conjugated to a TAT47-57 carrier peptide (SEQ ID NO:26) through an N-terminal Cys-Cys bond, as previously described (Chen, L. et al., Proc. Natl. Acad. Sci. USA, 98:11114-9 ((2001)). This peptide, identified herein as SEQ ID NO:29 and referred to as TAT-AnxV peptide, was used to pretreat (1 μM for 15 minutes) CHO cells prior to stimulation with PMA (10 nM for 5 minutes). For comparison, the annexin V peptide sequence was modified at the Arg (R) residue with a Glu (E) residue, to form a peptide having the sequence LQANEDPD, identified herein as SEQ ID NO:30. Substitution of E for R confers a charge difference between annexin V and delta PKC. This peptide was also attached to a TAT carrier peptide via N-terminal modification with a Cys-Cys bond. The conjugate is referred to herein as TAT-AnxV(R→E) (SEQ ID NO:31) and is denoted in some figures as “EpAnxV.” Cells were similarly pretreated with TAT-AnxV(R→E), prior to stimulation with PMA. As controls, some cells were left untreated and other cells were exposed only to PMA. […]

isolated rat hearts = experiment: Ex vivo ischemia/reperfusion in isolated rat hearts; settings: for infarct size: treated 10 minutes prior to 30 minutes ischemia, 60 minutes reperfusion, FIG. 9A
Experimental: The physiologic impact of disruption of the delta PKC-annexin V complex was evaluated in an ex vivo ischemia/reperfusion study using the annexin V peptide, TAT-AnxV, and its mutant, TAT-AnxV(R→E). As described in Example 7, isolated rat hearts were treated with TAT-AnxV or TAT-AnxV(R→E) for 10 minutes prior to induction of an ischemic episode. The ischemic episode lasted for 30 minutes, at which time flow to the heart was returned for 60 minutes (reperfusion). After the reperfusion period, cardiac effluent was collected and analyzed for creatine phosphokinase (CPK). The hearts were stained and visually inspected for live and dead tissue. Infarct size was measured by taking the average of the dead (white) tissue on both sides of the tissue slice.
A similar study was conducted, except rather than pretreating the isolated hearts with the annexin V peptide, the peptide was administered after the ischemic event and during the initial 10 minutes of the reperfusion period. Hearts were similarly treated with the mutant peptide, TAT-AnxV(R→E).
Rats were anesthetized and their hearts were rapidly removed and cannulated via the aorta for retrograde perfusion (Colbert, M. et al., J. Clin. Invest., 100:1958 (1997)). The hearts were left untreated, or were pretreated with the annexin V peptide, conjugated to TAT, (TAT-AnxV, SEQ ID NO:29) or with its mutant, TAT-AnxV(R→E) (SEQ ID NO:31), for 10 minutes prior to a 30 minutes of ischemia. Ischemia was induced by interrupting flow for 30 minutes and then reestablishing flow for 60 minutes (reperfusion). Cardiac effluent was collected for 15 minutes after reperfusion and assayed for creatine phosphokinase (CPK) using a Sigma kit. Hearts were stained with 2,3,5-triphenyltetrazolium chloride ([…]) to visualize live tissue (red) and dead tissue (white), and infarct size was measured by taking the average of the white area on both sides of the tissue slice (n=3, p<0.05). Results are shown in FIGS. 9A-9B and FIGS. 10A-10B.

T4 sequence (A0A8C2N0P5 1-676): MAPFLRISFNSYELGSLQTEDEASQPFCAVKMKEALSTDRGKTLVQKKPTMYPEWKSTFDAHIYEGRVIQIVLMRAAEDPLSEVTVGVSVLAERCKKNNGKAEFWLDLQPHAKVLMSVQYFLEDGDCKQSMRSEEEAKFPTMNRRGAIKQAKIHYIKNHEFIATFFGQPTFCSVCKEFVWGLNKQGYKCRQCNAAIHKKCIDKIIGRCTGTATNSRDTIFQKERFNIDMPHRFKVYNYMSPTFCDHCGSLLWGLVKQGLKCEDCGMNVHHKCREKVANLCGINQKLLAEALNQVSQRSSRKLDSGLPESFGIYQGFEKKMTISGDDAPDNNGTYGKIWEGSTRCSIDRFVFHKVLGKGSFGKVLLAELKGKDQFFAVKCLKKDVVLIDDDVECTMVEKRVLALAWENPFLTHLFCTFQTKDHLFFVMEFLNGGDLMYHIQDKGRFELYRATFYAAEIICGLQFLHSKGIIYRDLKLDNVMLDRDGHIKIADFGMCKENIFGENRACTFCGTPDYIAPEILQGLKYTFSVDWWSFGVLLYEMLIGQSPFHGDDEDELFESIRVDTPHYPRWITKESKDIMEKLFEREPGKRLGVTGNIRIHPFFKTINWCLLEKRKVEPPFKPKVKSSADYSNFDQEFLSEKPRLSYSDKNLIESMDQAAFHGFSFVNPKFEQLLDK
T3 sequence (A0A8C2N0P5 1-676): as above
T3 sequence (G3I5A4 1-321 partner): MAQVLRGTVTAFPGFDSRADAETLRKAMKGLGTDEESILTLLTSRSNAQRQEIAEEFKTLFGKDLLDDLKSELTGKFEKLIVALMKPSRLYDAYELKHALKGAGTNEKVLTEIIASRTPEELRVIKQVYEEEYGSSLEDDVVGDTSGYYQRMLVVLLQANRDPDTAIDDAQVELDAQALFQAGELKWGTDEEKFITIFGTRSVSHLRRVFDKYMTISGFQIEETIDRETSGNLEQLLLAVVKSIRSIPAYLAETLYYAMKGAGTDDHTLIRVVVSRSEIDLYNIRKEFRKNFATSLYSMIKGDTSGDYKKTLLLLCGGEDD
T1 sequence (Q05655 whole entry): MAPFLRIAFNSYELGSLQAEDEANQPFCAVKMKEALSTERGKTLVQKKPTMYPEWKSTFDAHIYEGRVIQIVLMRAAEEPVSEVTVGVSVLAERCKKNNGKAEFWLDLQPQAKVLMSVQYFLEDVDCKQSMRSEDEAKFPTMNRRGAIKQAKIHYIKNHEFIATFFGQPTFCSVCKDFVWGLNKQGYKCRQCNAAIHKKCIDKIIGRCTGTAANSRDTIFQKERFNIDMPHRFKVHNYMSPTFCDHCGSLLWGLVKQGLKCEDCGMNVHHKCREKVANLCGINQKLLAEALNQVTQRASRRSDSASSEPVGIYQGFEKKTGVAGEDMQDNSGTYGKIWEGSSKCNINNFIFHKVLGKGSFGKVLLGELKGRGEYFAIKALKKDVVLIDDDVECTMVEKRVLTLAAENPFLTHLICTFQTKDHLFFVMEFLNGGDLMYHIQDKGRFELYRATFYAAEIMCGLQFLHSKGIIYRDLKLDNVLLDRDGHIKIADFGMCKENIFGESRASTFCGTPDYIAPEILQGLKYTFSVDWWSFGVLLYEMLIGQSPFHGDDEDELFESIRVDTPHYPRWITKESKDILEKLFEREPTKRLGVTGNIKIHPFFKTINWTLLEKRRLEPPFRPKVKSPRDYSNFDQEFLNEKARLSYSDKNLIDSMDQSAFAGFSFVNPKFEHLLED
T2 sequence (Q05655 whole entry): as above

Compound | catalytic activity of delta PKC (histone phosphorylation) (delta PKC [1]; in the presence of PS/DAG, FIG. 4A) | catalytic activity of delta PKC (histone phosphorylation) (delta PKC [1]; in the presence of annexin V and PS/DAG, FIG. 4A Lane 5) | interaction of annexin V and delta PKC [2] | association of annexin V and delta PKC ([3]; basal conditions, FIGS. 6A-B) | cellular localization of the delta PKC-annexin V complex ([3]; soluble versus particulate fraction, FIG. 6D) | translocation of delta PKC to the cell membrane (delta PKC [4]) | infarct size (isolated rat hearts) | creatine phosphokinase (CPK) released (isolated rat hearts; treated 10 minutes prior to ischemia, FIG. 9B)
COc1ccc2c(c1)CN(C(=O)CCN1CCC(Cc3ccccc3)CC1)CCS2 [JTV-519] | about the same extent as observed for delta PKC in the presence of PS/DAG alone | blocked the increased catalytic activity observed with annexin V | greatly enhanced | full association | most of the δPKC-annexin V complex remained in the soluble fraction |  |  | 
TAT-AnxV(R→E): conjugate of SEQ ID NO:30 joined to a TAT carrier peptide through an N-terminal cysteine-cysteine bond (YGRKKRRQRRRCCLQANEDPD; disulfide 12-13 (inferred)) |  |  |  |  |  | lost its inhibitory effect on delta PKC translocation | did not inhibit the delta PKC-induced damage | 
TAT-AnxV: conjugate of SEQ ID NO:1 joined to a TAT carrier peptide through an N-terminal cysteine-cysteine bond (YGRKKRRQRRRCCLQANRDPD; disulfide 12-13 (inferred)) |  |  |  |  |  | blocked the translocation of delta PKC | statistically significant decrease in infarct size | reduced level of creatine phosphokinase
